Data: patent US20260001928A1 (CORTERIA PHARMACEUTICALS, priority 2022, published 2026)
*1 amine or outer side, *2 acyl side, *3 side chain or, on linkers, in order; H or OH if unused. Where a SMILES comes first, the peptide text is derived from it. Side-chain parts run from the residue outwards. [ ]: non-standard residue; d: D form. The star is where a group is joined. C20 diacid = O=C(O)CCCCCCCCCCCCCCCCCCC(=O)*; C18 diacid = O=C(O)CCCCCCCCCCCCCCCCC(=O)*; γGlu = O=C(O)[C@H](CCC(=O)[*:2])N[*:1]; NMeI = CC[C@H](C)[C@H](NC)C(=O)O; Pentanoyl = CCCCC(=O)*; Aib = CC(C)(N)C(=O)O

Assays:
human CRF2a receptor = biological target: T1, human CRF2a receptor (Homo sapiens, UniProt Q13324); test: Activity at human CRF2a receptor, cAMP functional assay in TeloHEAC cells; type: cell-based; settings: TeloHEAC cells stably expressing human CRF2a receptor, relative to urocortin 2 (100 nM = 100%)
T1 construct: expressed in transfected cells; host or cells: TeloHEAC cells
T1 sequence (Q13324 1-411): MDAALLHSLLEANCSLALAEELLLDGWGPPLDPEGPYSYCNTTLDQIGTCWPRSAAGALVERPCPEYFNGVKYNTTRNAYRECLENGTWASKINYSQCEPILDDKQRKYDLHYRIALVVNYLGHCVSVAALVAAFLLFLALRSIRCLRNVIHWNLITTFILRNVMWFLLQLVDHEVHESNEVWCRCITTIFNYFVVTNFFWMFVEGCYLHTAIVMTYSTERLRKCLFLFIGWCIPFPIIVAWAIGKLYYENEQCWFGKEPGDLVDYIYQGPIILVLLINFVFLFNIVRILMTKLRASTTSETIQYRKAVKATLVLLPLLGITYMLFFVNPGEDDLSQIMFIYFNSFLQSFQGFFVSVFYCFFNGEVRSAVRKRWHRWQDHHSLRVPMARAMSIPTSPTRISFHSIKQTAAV
How it was run: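 cAMP accumulation was measured by HTRF 665/620 nm ratio after 30 min at 37° C compound exposure (16 twofold dilutions) of CRF2a-expressing TeloHEAC cells, 10000/well, in HEPES-buffered HBSS plus IBMX. Activity was normalised to urocortin 2 at 100 nM (100%), and EC50 was the concentration giving half-maximal activation.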

CFR1R receptor = biological target: T2, CFR1R receptor (Homo sapiens, UniProt P34998); test: Activity at anti-target CFR1R receptor, cAMP assay in CRF1R-overexpression CHO-K1 cells; type: cell-based; settings: 100% = Sauvagine at 100 nM; for EC50: cAMP
T2 construct: host or cells: CHO-K1 (clone 2)
T2 sequence (P34998 24-415): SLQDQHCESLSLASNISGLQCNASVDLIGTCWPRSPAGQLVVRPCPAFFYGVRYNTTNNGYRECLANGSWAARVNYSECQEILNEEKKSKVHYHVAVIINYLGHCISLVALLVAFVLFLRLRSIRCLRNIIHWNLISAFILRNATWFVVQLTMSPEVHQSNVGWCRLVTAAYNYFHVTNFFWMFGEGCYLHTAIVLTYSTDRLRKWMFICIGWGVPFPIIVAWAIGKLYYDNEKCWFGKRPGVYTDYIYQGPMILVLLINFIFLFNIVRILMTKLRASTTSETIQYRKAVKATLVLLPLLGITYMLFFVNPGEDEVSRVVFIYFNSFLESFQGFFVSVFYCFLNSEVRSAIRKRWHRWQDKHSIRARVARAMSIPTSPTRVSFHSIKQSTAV
How it was run: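 Run as for the TeloHAEC line, except the full-activation control well received Sauvagine (100 nM) and final density was 4000 cells/well. Cells from clone 2 came from frozen aliquots of near-confluent cultures.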

Sprague Dawley rats = test: Effect on systolic blood pressure, telemetry in Sprague Dawley rats; type: in vivo, rat; settings: 0.1 mg/kg SC; for Systolic blood pressure (Mean) % change from baseline, 8 h / Systolic blood pressure (Mean) % change from baseline, 12 h / Systolic blood pressure (Mean) % change from baseline, 24 h: n=2; for Duration of action: last time point with an effect on BP still observed
Description: The effect of the compounds on systolic blood pressure was determined in telemetry studies in Sprague Dawley rats at a dosage of 0.1 mg/kg SC.
The rats were previously implanted with a telemetry device (DSI, Saint-Paul, USA, HD-S10, HD-S11 or HD S21) and allowed to recover for a minimum period of 2 weeks before treatment with vehicle or the different peptides. Blood pressure (BP) was recorded through a catheter inserted into the abdominal aorta. The device body was placed in the abdomen. The animals were allowed to recover from surgery for at least 10 days before the first administration of test drug or vehicle.
The chronically instrumented rats of the telemetry studies were individually housed immediately after surgery and then housed in pairs with a non-instrumented companion after recovery.
Systolic blood pressure was recorded for one hour before treatment (basal period). Thereafter, the subcutaneous administration of the test compound or its vehicle was performed, under continuous recording of the signal up to 48 hours, analysed and expressed as % change from baseline.
Representative data are presented in Table 13 below, in which “Duration of action” indicates the last time point for which an effect on BP was still observed (n=2 animals/peptide)

EC50 (human CRF2a receptor) [nM]	Emax (% I) (CFR1R receptor)	EC50 (CFR1R receptor) [nM]	SMILES	Systolic blood pressure (Mean) % change from baseline, 8 h (Sprague Dawley rats) [%]	Systolic blood pressure (Mean) % change from baseline, 12 h (Sprague Dawley rats) [%]	Systolic blood pressure (Mean) % change from baseline, 24 h (Sprague Dawley rats) [%]	Duration of action (Sprague Dawley rats) [h]
0.44	10	> 250	CCCCC(=O)N[C@H](C(=O)N[C@@H](CC(C)C)C(=O)N[C@@H](CO)C(=O)N[C@@H](CC(C)C)C(=O)N[C@@H](CC(=O)O)C(=O)N[C@@H](C(=O)N1CCC[C@H]1C(=O)N[C@H](C(=O)N[C@@H](CCCCN)C(=O)N[C@@H](CC(C)C)C(=O)N[C@@H](CCCCNC(=O)CC[C@H](NC(=O)CCCCCCCCCCCCCCCCC(=O)O)C(=O)O)C(=O)N[C@@H](CCCCN)C(=O)N[C@H](C(=O)N[C@@H](CC(C)C)C(=O)N[C@@H](CC(C)C)C(=O)N[C@@H](CCC(=O)O)C(=O)N[C@@H](CCC(N)=O)C(=O)N[C@@H](CCC(=O)O)C(=O)N[C@@H](CCCCN)C(=O)N[C@@H](CCC(N)=O)C(=O)N[C@@H](CCCCN)C(=O)NC(C)(C)C(=O)N[C@@H](CCC(N)=O)C(=O)N[C@@H](CCCNC(=N)N)C(=O)N[C@@H](CCC(=O)O)C(=O)N[C@@H](CCC(N)=O)C(=O)N[C@@H](C)C(=O)N[C@@H](CCC(=O)O)C(=O)N[C@H](C(=O)N[C@@H](CC(N)=O)C(=O)NC(C)(C)C(=O)N[C@@H](CCC(N)=O)C(=O)N[C@H](C(=O)N[C@@H](CC(C)C)C(=O)N[C@@H](C)C(=O)N[C@@H](CCC(N)=O)C(=O)N[C@H](C(N)=O)C(C)C)[C@@H](C)CC)[C@@H](C)O)[C@@H](C)CC)[C@@H](C)CC)C(C)C)C(C)C [compound 194] (Pentanoyl-VLSLD[dV]PIKLK([γGlu-C18 diacid])KILLEQEKQK[Aib]QREQAETN[Aib]QILAQV-NH2)	−13	−3	18	19
0.22	21	> 250	CC[C@H](C)[C@H](NC(C)=O)C(=O)N[C@H](C(=O)N[C@@H](CC(C)C)C(=O)N[C@@H](CO)C(=O)N[C@@H](CC(C)C)C(=O)N[C@@H](CC(=O)O)C(=O)N[C@@H](C(=O)N1CCC[C@H]1C(=O)N[C@H](C(=O)N[C@@H](CCCCN)C(=O)N[C@@H](CC(C)C)C(=O)N[C@@H](CCCCNC(=O)CC[C@H](NC(=O)CCCCCCCCCCCCCCCCCCC(=O)O)C(=O)O)C(=O)N[C@@H](CCCCN)C(=O)N[C@H](C(=O)N[C@@H](CC(C)C)C(=O)N[C@@H](CC(C)C)C(=O)N[C@@H](CCC(=O)O)C(=O)N[C@@H](CCC(N)=O)C(=O)N[C@@H](CCC(=O)O)C(=O)N[C@@H](CCCCN)C(=O)N[C@@H](CCC(N)=O)C(=O)N[C@@H](CCCCN)C(=O)NC(C)(C)C(=O)N[C@@H](CCC(N)=O)C(=O)N[C@@H](CCCNC(=N)N)C(=O)N[C@@H](CCC(=O)O)C(=O)N[C@@H](CCC(N)=O)C(=O)N[C@@H](C)C(=O)N[C@@H](CCC(=O)O)C(=O)N[C@H](C(=O)N[C@@H](CC(N)=O)C(=O)NC(C)(C)C(=O)N[C@@H](CCC(N)=O)C(=O)N[C@H](C(=O)N[C@@H](CC(C)C)C(=O)N[C@@H](C)C(=O)N[C@@H](CCC(N)=O)C(=O)N[C@H](C(N)=O)C(C)C)[C@@H](C)CC)[C@@H](C)O)[C@@H](C)CC)[C@@H](C)CC)C(C)C)C(C)C [compound 209] (Ac-IVLSLD[dV]PIKLK([γGlu-C20 diacid])KILLEQEKQK[Aib]QREQAETN[Aib]QILAQV-NH2)	−18	−11	3	23
0.27	32	> 250	CCCCC(=O)N[C@H](C(=O)N[C@@H](CC(C)C)C(=O)N[C@@H](CO)C(=O)N[C@@H](CC(C)C)C(=O)N[C@@H](CC(=O)O)C(=O)N[C@@H](C(=O)N1CCC[C@H]1C(=O)N[C@H](C(=O)N[C@@H](CCCCN)C(=O)N[C@@H](CC(C)C)C(=O)N[C@@H](CCCCNC(=O)CC[C@H](NC(=O)CCCCCCCCCCCCCCCCCCC(=O)O)C(=O)O)C(=O)N[C@@H](CCCCN)C(=O)N[C@H](C(=O)N[C@@H](CC(C)C)C(=O)N[C@@H](CC(C)C)C(=O)N[C@@H](CCC(=O)O)C(=O)N[C@@H](CCC(N)=O)C(=O)N[C@@H](CCC(=O)O)C(=O)N[C@@H](CCCCN)C(=O)N[C@@H](CCC(N)=O)C(=O)N[C@@H](CCCCN)C(=O)NC(C)(C)C(=O)N[C@@H](CCC(N)=O)C(=O)N[C@@H](CCCNC(=N)N)C(=O)N[C@@H](CCC(=O)O)C(=O)N[C@@H](CCC(N)=O)C(=O)N[C@@H](C)C(=O)N[C@@H](CCC(=O)O)C(=O)N[C@H](C(=O)N[C@@H](CC(N)=O)C(=O)NC(C)(C)C(=O)N[C@@H](CCC(N)=O)C(=O)N[C@H](C(=O)N[C@@H](CC(C)C)C(=O)N[C@@H](C)C(=O)N[C@@H](CCC(N)=O)C(=O)N[C@H](C(N)=O)C(C)C)[C@@H](C)CC)[C@@H](C)O)[C@@H](C)CC)[C@@H](C)CC)C(C)C)C(C)C [compound 220] (Pentanoyl-VLSLD[dV]PIKLK([γGlu-C20 diacid])KILLEQEKQK[Aib]QREQAETN[Aib]QILAQV-NH2)	−17	−14	−11	>24
0.11	43		CC[C@H](C)[C@H](NC)C(=O)N[C@H](C(=O)N[C@@H](CC(C)C)C(=O)N[C@@H](CO)C(=O)N[C@@H](CC(C)C)C(=O)N[C@@H](CC(=O)O)C(=O)N[C@@H](C(=O)N1CCC[C@H]1C(=O)N[C@H](C(=O)NCC(=O)N[C@@H](CC(C)C)C(=O)N[C@@H](CCCCNC(=O)CC[C@H](NC(=O)CCCCCCCCCCCCCCCCCCC(=O)O)C(=O)O)C(=O)N[C@@H](CCCCN)C(=O)N[C@H](C(=O)N[C@@H](CC(C)C)C(=O)N[C@@H](CC(C)C)C(=O)N[C@@H](CCC(=O)O)C(=O)N[C@@H](CCC(N)=O)C(=O)N[C@@H](CCC(=O)O)C(=O)N[C@@H](CCCCN)C(=O)N[C@@H](CCC(N)=O)C(=O)N[C@@H](CCCCN)C(=O)N[C@@H](CCCCN)C(=O)N[C@@H](CCC(N)=O)C(=O)N[C@@H](CCCNC(=N)N)C(=O)N[C@@H](CCC(=O)O)C(=O)N[C@@H](CCC(N)=O)C(=O)N[C@@H](C)C(=O)N[C@@H](CCC(=O)O)C(=O)N[C@H](C(=O)N[C@@H](CC(N)=O)C(=O)NC(C)(C)C(=O)N[C@@H](CCC(N)=O)C(=O)N[C@H](C(=O)N[C@@H](CC(C)C)C(=O)N[C@@H](C)C(=O)N[C@@H](CCC(N)=O)C(=O)N[C@H](C(N)=O)C(C)C)[C@@H](C)CC)[C@@H](C)O)[C@@H](C)CC)[C@@H](C)CC)C(C)C)C(C)C [compound 229] (H-[NMeI]VLSLD[dV]PIGLK([γGlu-C20 diacid])KILLEQEKQKKQREQAETN[Aib]QILAQV-NH2)	−12	−9	−5	>24
